Results on 1 compound are retold here after patent US8242167B2, “Mannose derivatives for killing tumor cells” (University of Miami, priority 2006, dated 2012).

For one series, the system named is tumor cell lines. Description: Toxicity survey of tumor cell lines under normoxic conditions. The class given is cell-based. As to the method: Cell types. The Δ^0 cells were isolated by treating osteosarcoma cell line 143B (wt) with ethidium bromide for prolonged periods, as previously described (9). Because the Δ^0 cells are uridine and pyruvate auxotrophs, they were grown in DMEM (GIBCO, USA) supplemented with 10% fetal calf serum, 50 μg/ml of uridine and 100 mM sodium pyruvate. The SKBR3 cell line was obtained from Dr. Joseph Rosenblatt's laboratory at the University of Miami. The pancreatic cancer cell lines 1420 and 1469, the ovarian cancer cell line SKOV3, the cervical cancer cell line HELA, and the osteosarcoma cell line 143B were purchased from ATCC. The non-small cell lung cancer and small cell lung cancer cell lines were derived from patients by Dr. Niramol Savaraj at the University of Miami. SKBR3 and SKOV3 cells were grown in McCoy's 5A medium; 1420, 1469 and 143B were grown in DMEM (GIBCO, USA); and HELA was grown in MEM (GIBCO, USA). The media was supplemented with 10% fetal bovine serum. All cells were grown under 5% CO2 and 37° C.
(§1) Cytotoxicity assay. Cells were incubated for 24 hr at 37° C. in 5% CO2 at which time drug treatments began and continued for 72 hr. At this time, attached cells were trypsinized and combined with their respective culture media followed by centrifugation at 400 g for 5 min. The pellets were resuspended in 1 ml of Hanks solution and analyzed by Vi-Cell (Beckman Coulter, USA) cell viability analyzer.

The test system of series [1] is SKBR3 cells. Description: ATP quantification assay in SKBR3 cells. The class given is cell-based, human. The conditions noted are these: 6 hours, 2-FDG vs. 2-DG. On the procedure: ATP quantitation assay. The ATP lite kit (Perkin Elmer) can be used to quantify levels of ATP. About 50 μL of cell lysis solution were added to 100 μL of cell suspension in a white-bottom 96-well plate. The plate was incubated at room temperature on a shaker (700 rpm) for five minutes. 50 μL of substrate solution was then added to the wells and shaken (700 rpm) for another five minutes at room temperature. The plate was then dark adapted for ten minutes and measured for luminescence.
ATP quantification assay. The ATP lite kit (Perkin Elmer) can be used to quantify levels of ATP. About […] of cell lysis solution were added to […] of cell suspension in a white-bottom 96-well plate. The plate was incubated at room temperature on a shaker (700 rpm) for five minutes. About […] solution were then added to the wells and shaken (700 rpm) for another five minutes at room temperature. The plate was then dark adapted for ten minutes and measured for luminescence. To normalize the reduction of ATP production to growth inhibition which results due to treatment with 2-DG or 2-FDG, parallel experiments were run to measure the total protein concentration using a microBCA protein detection kit (Pierce, Rockford, Ill.).

The subject of the next series is erbB2. As to the kind of experiment: Western blot of erbB2 in SKBR3 cells. The class given is cell-based, human. On the procedure: (§2) Western Blot analysis. Cells were plated at 10^4 cell cm^−2 and grown under drug treatment for the indicated times. At the end of the treatment period, cells were collected and lysed with 1% SDS in 80 mM Tris-HCL (ph 7.4) buffer supplemented with a proteinase inhibitor cocktail. DNA was fragmented by sonication and protein concentrations were measured by microBCA protein assay kit (Pierce, USA). Samples were mixed with 2× Laemmli sample buffer (Bio-Rad, USA) and run on a SDS-polyacrylamide gel. Gels were transferred to nitrocellulose membranes (Amersham, USA) and probed with anti-KDEL (Stressgen, Canada) (for Grp78 and Grp94); polyclonal anti-CHOP/[…] (Santa Cruz, USA), polyclonal anti-erbB2 (DAKO, USA). Following probing, membranes were washed and incubated with an HRP conjugated secondary antibody. Chemiluminesence was detected by exposure to film. Where indicated, membranes were stripped with Stripping Buffer (Pierce, USA) and reprobed with anti-actin (Sigma, USA) primary antibody. To analyze conconavalin A (ConA) binding, the membranes were incubated with 0.2 μg/ml HRP-conjugated ConA, and chemiluminescence was detected as described.

Series [2] has as its system SKBR3 cells. Description: Lactic acid assay in SKBR3 cells. The class given is cell-based, human. To be noted: 2 mM, 24 hr, 2-FDG vs. 2-DG. As to the method:
Lactic acid assay. Lactic acid was measured by adding 0.025 ml of deproteinated medium, from treated or non-treated cultures, to a reaction mixture containing 0.1 ml of lactic acid dehydrogenase (1000 units/ml), 2 ml of glycine buffer (glycine, 0.6 mol/L, and hydrazine, pH 9.2), and 1.66 mg/ml NAD. Deproteinization occurred by treating 0.5 ml of medium from test cultures with 1 ml of perchloric acid at 8% w/v, vortexing for 30 s, then incubating this mixture at 4° C. for 5 min, and centrifuging at 1500 g for 10 min. The supernatant was centrifuged three times more, and 0.025 ml of a final clear supernatant was used for lactic acid determinations. Formation of NADH was measured with a Beckman DUr 520 UV/vis spectrophotometer at 340 nm, which directly corresponds to lactic acid levels as determined by a lactate standard curve.
Lactic acid assay. Lactic acid was measured by adding 0.025 ml of deproteinated medium, from treated or non-treated cultures, to a reaction mixture containing 0.1 ml of lactic dehydrogenase (1000 units/ml), 2 ml of glycine buffer (glycine, 0.6 mol/L, and hydrazine, pH 9.2), and 1.66 mg/ml NAD. […] Formation of NADH was measured with a Beckman DUr 520 UV/vis spectrophotometer at 340 nm, which directly corresponds to lactic acid levels as determined by a lactate standard curve.

Series [3] deals with glycoproteins (ConA binding) in SKBR3 cells. Description: HRP-conjugated ConA blot of SKBR3 cell extracts. The class given is cell-based, human. To be noted: SKBR3, 48 hr, 8 mM sugar analog. On the procedure: as §2
A further series has as its system Grp78 and Grp94. Description: Western blot of Grp78 and Grp94 (unfolded protein response) in SKBR3 cells under normoxia. The class given is cell-based, human. As to the method:
as §2

A further series concerns CHOP/GADD154. Description: Western blot of CHOP/GADD154 in SKBR3 cells. To be noted: SKBR3, normoxia, 24 hrs; 8 mM sugar analog. The class given is cell-based, human. On the procedure:
as §2
A general note: Immunoblotting shows a protein as a band on a membrane.

Series [4] deals with SKBR3 cells. Description: Cytotoxicity in SKBR3 cells under hypoxic conditions. The conditions noted are these: 2-FDG vs. 2-DG. The class given is cell-based, human. As to the method:
as §1, with “Hypoxia. For studies in hypoxic conditions (Model C), cells were seeded and incubated for 24 hr at 37° C. and 5% CO2 as described below for direct cytotoxicity assays. After the 24 hr incubation, cells received drug treatment and were placed in a Pro-Ox in vitro chamber attached to a model 110 oxygen controller ([…] Bioinstruments Co. […] Cytotoxicity” for “Cytotoxicity”

Series [5] concerns SKBR3 cells. As to the kind of experiment: Growth inhibitory and cytotoxicity assay in SKBR3 cells under normoxia. The class given is cell-based, human. On the procedure: Cytotoxicity assay and Rapid DNA Content Analysis. Cells were incubated for 24 hr at 37° C. in 5% CO2 at which time drug treatments began and were continued for 72 hr. At this time, attached cells were trypsinized and combined with their respective culture media followed by centrifugation at 400 g for 5 min. Pellets containing the cells were either resuspended in 1.5 ml of a medium/trypan blue mixture for cytotoxicity assays or propidium iodide/hypotonic citrate staining solution for determining the nuclear DNA content and cell cycle by a Coulter XL flow cytometer. A minimum of 10,000 cells were analyzed to generate a DNA distribution histogram.
as §1

In a further series the test system is fowl plague virus. The conditions noted are these: chick embryo fibroblasts infected with fowl plague virus; cited from earlier work.

Turning to `O=C[C@H](F)[C@@H](O)[C@H](O)[C@H](O)CO` [2-FDG, 2-deoxy-2-fluoro-glucose, reference compound], the “tumor cell lines undergoing significant cell death” value in the series on tumor cell lines (6 mM, normal oxygen tension) is “not”. Further, in the series on tumor cell lines (normoxia), the “toxicity to select tumor cell types” value is on record as “not”. Further, in the series on tumor cell lines (normoxic conditions), the “toxicity to cell types that are sensitive to 2-DG” value is given as “shows no toxicity”. The ATP depletion result with SKBR3 cells [1] is listed as “ATP depletion was more prominent”. In addition, in the series with erbB2, the “molecular weight of erbB2” value is recorded as “had no effect”. Further, the “inhibition of lactate levels (a measure of glycolysis)” value in the series on SKBR3 cells [2] is listed as “inhibited lactate levels (a measure of glycolysis) better than the latter”. In series [3], the “ConA binding of glycoproteins” value was “no reduction in ConA binding”. Further, the “expression of chaperones Grp78 and Grp94” value with Grp78 and Grp94 (SKBR3, normoxia, 24 hrs, 8 mM sugar analog, tunicamycin 1 micro g/ml) is “does not increase the levels of these chaperones as much as 2-DG or 2-FDM”. In addition, in the series with Grp78 and Grp94 (select tumor cells, normoxic conditions), the “up-regulation of GRP 78 and 94, dose dependence” value is on record as “not”. Besides, the “induction of GADD154/CHOP” value in the series on CHOP/GADD154 is “not”. The “toxicity under hypoxic conditions” value in the series with SKBR3 cells [4] is on record as “more toxic than 2-DG”. Moreover, the “cytotoxicity measured by trypan blue exclusion” value in the series with SKBR3 cells [5] (SKBR3, 72 hrs, normal oxygen conditions) was “is not”. In addition, in the series on SKBR3 cells [5] (normoxia), the “rank order in growth inhibiting and killing SKBR3 cells” value was 2-DG>2-FDM>>>2-FDG; the “toxicity to SKBR3 cells grown under normoxia (FIG. 1)” value is “neither of these agents caused toxicity”. Further, the “order of potency to inhibit viral glycoprotein synthesis” value in the series with fowl plague virus is 2-DG>2-FDM>2-FDG.
